Experimental data from US8703106B2, “Chlorine dioxide treatment for biological tissue” (priority 2009, dated 2014).

Experiments:
[1] = test system: PA biofilm; experiment: Biofilm kill in protein-rich (FBS) environment (Example 3); type: cell-based, Pseudomonas aeruginosa; details: for Log Reduction in Organism Count: PA
Procedure: Chlorine dioxide efficacy against biofilm in protein-rich environment A series of experiments were conducted to determine the effect of FBS on the kill of PA. MRSA and mixture PA/MRSA biofilms. Biofilms were grown as described in Example 1, Disks were immersed in 25 ml of FBS solution at double the target FBS concentration, and to that was added 25 ml of chlorine dioxide solution at double the target chlorine dioxide concentration. After the desired contact time, disks were removed from the treatment solutions, neutralized, and plated as described above.
Dosage is given both as the nominal dose based upon the initial chlorine dioxide concentration, and the actual dosage as estimated from the initial chlorine dioxide concentration and the decay relationships described above.
Columns 3-6 are measured data; columns 7-11 are calculated data. For K2 having a positive sign (such as Samples 20-21), it was assumed that there was insufficient FBS present to cause a material loss of chlorine dioxide. Therefore, for such samples, it was assumed that chlorine dioxide was unchanged over the time of the experiment FIG. 4 is a graph of the results.

[2] = test system: total bacteria in wounds; experiment: Pig infected wound model, delivery methods (Example 4); type: in vivo; details: Day 2, 400 ppm chlorine dioxide over two hours, versus moist controls
Excerpt: (§1) The test animal was a pig (n=1). Pigs are commonly used as models for wound healing in part because pig skin shares many characteristics with human skin. The porcine model is considered to be an excellent tool for the evaluation of candidate agents intended for use in human wounds.
(§2) On Day 0, the pig was anesthetized and sixteen […] full-thickness wounds (eight per side) were created using a custom designed 2-cm trephine. Each wound was 2-cm in diameter. An epinephrine solution (1:10,000 dilution) was applied to the wounds on gauze sponges until hemostasis was complete (approximately 10 minutes). Each wound was then infected with a bacterial inoculum.
(§3) Three different bacteria, Pseudomonas aeruginosa, Fusobacterium sp., and coagulase-negative Staphylococci (CNS), were cultured and used to prepare inoculums for the wounds. On the morning of surgery, the bacterial cultures were washed with sterile saline and resuspended in saline to a final density of approximately 10^7 CFU/mL. This bacterial suspension was used to inoculate each wound.
(§4) Wounds were dressed with sterile Telfa gauze, and the infections allowed to mature to establish a bacterial biofilm condition. Telfa dressings were moistened with saline: the excess saline was removed by squeezing the Telfa dressings. The dressing was then secured in place with Transpore tape (3M, St. Paul, Minn.), As a secondary dressing, a blue absorbent pad was used to cover all of the wounds. The absorbent layer of the blue pad was placed against the skin for the first few days. If wounds looked too dry, the blue pad was changed with the occlusive side against the skin. A layer of a layer of elastic bandage was wrapped over the blue pad to prevent movement of the dressings underneath. All wound dressing were changed on Day 1.
(§5) On Day 2, wounds were treated with a chlorine dioxide composition using different delivery methods. In brief, wounds A2-A4 were treated with continuous irrigation. Treatment for wounds B2-B4 and C2-C4 was multiple, substantially contiguous episodes of contact with a substantially non-cytotoxic chlorine dioxide gel composition. Wounds D2-D4 were treated with intermittent irrigation using a manual irrigation device. A1, B1 and D1 were controls and were not treated with chlorine dioxide. C1 was manually treated with a chlorine dioxide solution.
(§6) Wounds A2-A4: Each wound was individually covered with an irrigation device, each having an inlet, port to supply a chlorine dioxide solution and an outlet port for egress of the chlorine, dioxide solution. […]
(§7) The pump was activated to achieve an initial flow rate of approximately 80-82 ml mm through each of the three irrigation chambers. Chlorine dioxide concentrations were measured at the outlets using a UV spectrophotometer. […]

[3] = test system: Pseudomonas in wounds; experiment: as above; type: in vivo; details: Day 2, 400 ppm chlorine dioxide over two hours, versus moist controls
Excerpt: as §1, §2, §3, §4, §5, §6, §7

[O][Cl+][O-] [ClO2, chlorine dioxide]
corrected dose rate resulting in complete kill ([1]; PA biofilm, with FBS): ≥ 2000 ppm-rain
Log Reduction in Organism Count ([1]; Sample 27, FBS 131 mg/mg ClO2, 15.0 min, initial 191 ppm, nominal 2865, corrected 2236 ppm-min): 7.1 log
Log Reduction in Organism Count ([1]; Sample 28, FBS 131 mg/mg ClO2, 40.0 min, initial 191 ppm, nominal 7640, corrected 5559 ppm-min): 7.1 log
Log Reduction in Organism Count ([1]; Sample 29, FBS 104 mg/mg ClO2, 15.0 min, initial 240 ppm, nominal and corrected 3600 ppm-min): 7.1 log
Log Reduction in Organism Count ([1]; Sample 30, FBS 104 mg/mg ClO2, 30.0 min, initial 240 ppm, nominal and corrected 7200 ppm-min): 7.1 log
Log Reduction in Organism Count ([1]; Sample 31, FBS 104 mg/mg ClO2, 60.0 min, initial 240 ppm, nominal and corrected 14400 ppm-min): 7.1 log
total bacteria reduction [2]: 1-2 logs
reduction of Pseudomonas [3]: ≥ 3 logs
